Measurements taken from ChEMBL document CHEMBL4038308, “Lipophosphonoxins II: Design, Synthesis, and Properties of Novel Broad Spectrum Antibacterial Agents” (J Med Chem, 2017).
≈ marks a conversion by molar mass, not a printed value. Calls of active or inactive are those of the source. No cut-off for these calls is given here.

Assays:
Staphylococcus aureus [1] = experiment: Antibacterial activity against methicillin-resistant Staphylococcus aureus 4591 clinical isolates after 24 hrs by microdilution method; type: functional; settings: Staphylococcus aureus, 4591, 24 h
Pseudomonas aeruginosa [2] = experiment: Antibacterial activity against Pseudomonas aeruginosa CCM 3955 after 24 hrs by microdilution method; type: functional; settings: CCM 3955, 24 h
Bacillus subtilis [3] = experiment: Antibacterial activity against Bacillus subtilis after 24 hrs by microdilution method; type: functional
[4] = system: Staphylococcus epidermidis; experiment: Antibacterial activity against Staphylococcus epidermidis 8700/B after 24 hrs by microdilution method; type: functional
[5] = system: Stenotrophomonas maltophilia; experiment: Antibacterial activity against Stenotrophomonas maltophilia S2-23 after 24 hrs by microdilution method; type: functional; settings: S2-23, 24 h
Salmonella enteritidis = experiment: Antibacterial activity against Salmonella enteritidis S2-25 after 24 hrs by microdilution method; type: functional, Salmonella enterica subsp. enterica serovar Enteritidis; settings: Salmonella enterica, S2-25, 24 h
Enterococcus faecalis = experiment: Antibacterial activity against Enterococcus faecalis CCM 4224 after 24 hrs by microdilution method; type: functional; settings: CCM 4224, 24 h
[6] = system: Staphylococcus haemolyticus; experiment: Antibacterial activity against fluoroquinolne-resistant Staphylococcus haemolyticus 16568 after 24 hrs by microdilution method; type: functional; settings: Staphylococcus haemolyticus, 16568, 24 h
Enterococcus faecium = experiment: Antibacterial activity against vancomycin-resistant Enterococcus faecium 419/ana clinical isolates after 24 hrs by microdilution method; type: functional
Escherichia coli [7] = experiment: Antibacterial activity against Escherichia coli 16702 after 24 hrs by microdilution method; type: functional; settings: Escherichia coli, 16702, 24 h
Staphylococcus aureus [8] = experiment: Antibacterial activity against Staphylococcus aureus CCM 4223 after 24 hrs by microdilution method; type: functional; settings: CCM 4223, 24 h
Acinetobacter baumannii = experiment: Antibacterial activity against Acinetobacter baumannii A3-08 after 24 hrs by microdilution method; type: functional; settings: A3-08, 24 h
Streptococcus agalactiae = experiment: Antibacterial activity against Streptococcus agalactiae after 24 hrs by microdilution method; type: functional
Escherichia coli [9] = experiment: Antibacterial activity against Escherichia coli CCM 3954 after 24 hrs by microdilution method; type: functional; settings: CCM 3954, 24 h
Burkholderia multivorans = experiment: Antibacterial activity against Burkholderia multivorans after 24 hrs by microdilution method; type: functional
Pseudomonas aeruginosa [10] = experiment: Antibacterial activity against Pseudomonas aeruginosa 16575 after 24 hrs by microdilution method; type: functional; settings: Pseudomonas aeruginosa, 16575, 24 h
Lipid bilayer = experiment: Binding affinity to DOPG large unilamellar vesicle assessed as carboxyfluorescein leakage at 10 mg/L after 20 secs by fluorescence-based assay relative to control
Bacillus subtilis [11] = experiment: Antibacterial activity against Bacillus subtilis assessed as inhibition of RNA synthesis at 2 mg/L after 50 mins by [3H]-uridine incorporation assay; type: functional
Bacillus subtilis [12] = experiment: Antibacterial activity against Bacillus subtilis assessed as inhibition of plasma membrane lipids synthesis at 2 mg/L after 50 mins by [3H]-sodium acetate incorporation assay; type: functional
Bacillus subtilis [13] = experiment: Antibacterial activity against Bacillus subtilis assessed as inhibition of protein synthesis at 2 mg/L after 50 mins by [35S]-methionine incorporation assay; type: functional
Bacillus subtilis [14] = experiment: Antibacterial activity against Bacillus subtilis assessed as inhibition of peptidoglycan synthesis at 2 mg/L after 50 mins by [3H]-N-acetylglucosamine incorporation assay; type: functional
Bacillus subtilis [15] = experiment: Antibacterial activity against Bacillus subtilis assessed as inhibition of DNA synthesis at 2 mg/L after 50 mins by [3H]thymidine incorporation assay; type: functional
[16] = Pore forming activity across black lipid bilayer membranes assessed as induction of variation in membrane current by measuring pore conductance at 5 ug/ml

| SMILES | MIC (Staphylococcus aureus [1]) [µg/mL] | MIC (Pseudomonas aeruginosa [2]) [µg/mL] | MIC (Bacillus subtilis [3]) [µg/mL] | MIC [4] [µg/mL] | MIC [5] [µg/mL] | MIC (Salmonella enteritidis) [µg/mL] | MIC (Enterococcus faecalis) [µg/mL] | MIC [6] [µg/mL] | MIC (Enterococcus faecium) [µg/mL] | MIC (Escherichia coli [7]) [µg/mL] | MIC (Staphylococcus aureus [8]) [µg/mL] | MIC (Acinetobacter baumannii) [µg/mL] | MIC (Streptococcus agalactiae) [µg/mL] | MIC (Escherichia coli [9]) [µg/mL] | MIC (Burkholderia multivorans) [µg/mL] | MIC (Pseudomonas aeruginosa [10]) [µg/mL] | other results |
| --- | --- | --- | --- | --- | --- | --- | --- | --- | --- | --- | --- | --- | --- | --- | --- | --- | --- |
| CCCCCCCCCCCCCOP(=O)(CCN(CCCNC(=N)N)CCCNC(=N)N)OC[C@H]1O[C@@H](n2ccc(=O)[nH]c2=O)[C@H](O)[C@@H]1O (some centres undefined) | 12.5 (≈ 17.1 µM) | 3.13 (≈ 4.28 µM) | 1.56 (≈ 2.13 µM) | 6.25 (≈ 8.54 µM) | 25 (≈ 34.2 µM) | 12.5 (≈ 17.1 µM) | 25 (≈ 34.2 µM) | 3.13 (≈ 4.28 µM) | 50 (≈ 68.3 µM) | 12.5 (≈ 17.1 µM) | 6.25 (≈ 8.54 µM) | 25 (≈ 34.2 µM) | 3.13 (≈ 4.28 µM) | 12.5 (≈ 17.1 µM) | 50 (≈ 68.3 µM) | 25 (≈ 34.2 µM) | – |
| CCCCCCCCCCCCCCOP(=O)(CCN(CCCNC(=N)N)CCCNC(=N)N)OC[C@H]1O[C@@H](n2ccc(=O)[nH]c2=O)[C@H](O)[C@@H]1O (some centres undefined) | 6.25 (≈ 8.38 µM) | 3.13 (≈ 4.2 µM) | 1.56 (≈ 2.09 µM) | 3.13 (≈ 4.2 µM) | 12.5 (≈ 16.8 µM) | 3.13 (≈ 4.2 µM) | 12.5 (≈ 16.8 µM) | 3.13 (≈ 4.2 µM) | 50 (≈ 67 µM) | 3.13 (≈ 4.2 µM) | 6.25 (≈ 8.38 µM) | 12.5 (≈ 16.8 µM) | 3.13 (≈ 4.2 µM) | 3.13 (≈ 4.2 µM) | 100 (≈ 134 µM) | 6.25 (≈ 8.38 µM) | Activity (Lipid bilayer): Active |
| CCCCCCCCCCCCOP(=O)(CCN(CCCN)CCCN)OC[C@H]1O[C@@H](n2ccc(=O)[nH]c2=O)[C@H](O)[C@@H]1O (some centres undefined) | 200 (≈ 316 µM) | 3.13 (≈ 4.94 µM) | 3.13 (≈ 4.94 µM) | 6.25 (≈ 9.86 µM) | 6.25 (≈ 9.86 µM) | 6.25 (≈ 9.86 µM) | 100 (≈ 158 µM) | 200 (≈ 316 µM) | 25 (≈ 39.4 µM) | 25 (≈ 39.4 µM) | 25 (≈ 39.4 µM) | 6.25 (≈ 9.86 µM) | 3.13 (≈ 4.94 µM) | 25 (≈ 39.4 µM) | > 200 | 50 (≈ 78.9 µM) | – |
| CCCCCCCCCCCCCCCOP(=O)(CCN(CCN)CCN)OC[C@H]1O[C@@H](n2ccc(=O)[nH]c2=O)[C@H](O)[C@@H]1O (some centres undefined) | 6.25 (≈ 9.65 µM) | 1.56 (≈ 2.41 µM) | 0.78 (≈ 1.2 µM) | 1.56 (≈ 2.41 µM) | 3.13 (≈ 4.83 µM) | 1.56 (≈ 2.41 µM) | 12.5 (≈ 19.3 µM) | 1.56 (≈ 2.41 µM) | 100 (≈ 154 µM) | 1.56 (≈ 2.41 µM) | 6.25 (≈ 9.65 µM) | 3.13 (≈ 4.83 µM) | 3.13 (≈ 4.83 µM) | 1.56 (≈ 2.41 µM) | 50 (≈ 77.2 µM) | 1.56 (≈ 2.41 µM) | – |
| CCCCCCCCCCCCCCCCOP(=O)(CCN(CCNC(=N)N)CCNC(=N)N)OC[C@H]1O[C@@H](n2ccc(=O)[nH]c2=O)[C@H](O)[C@@H]1O (some centres undefined) | 6.25 (≈ 8.38 µM) | 6.25 (≈ 8.38 µM) | 3.13 (≈ 4.2 µM) | 3.13 (≈ 4.2 µM) | 3.13 (≈ 4.2 µM) | 3.13 (≈ 4.2 µM) | 25 (≈ 33.5 µM) | 6.25 (≈ 8.38 µM) | 50 (≈ 67 µM) | 3.13 (≈ 4.2 µM) | 6.25 (≈ 8.38 µM) | 6.25 (≈ 8.38 µM) | 3.13 (≈ 4.2 µM) | 3.13 (≈ 4.2 µM) | 25 (≈ 33.5 µM) | 6.25 (≈ 8.38 µM) | – |
| CC1(C)S[C@@H]2[C@H](NC(=O)[C@H](N)c3ccccc3)C(=O)N2[C@H]1C(=O)O | – | – | – | – | – | – | – | – | – | – | – | – | – | – | – | – | inhibition (Bacillus subtilis [11]): Active; inhibition (Bacillus subtilis [12]): Active; inhibition (Bacillus subtilis [13]): Active; inhibition (Bacillus subtilis [14]): Active; inhibition (Bacillus subtilis [15]): Active |
| CCCCCCCCCCCCCOP(=O)(CCN(CCCN)CCCN)OC[C@H]1O[C@@H](n2ccc(=O)[nH]c2=O)[C@H](O)[C@@H]1O (some centres undefined) | 25 (≈ 38.6 µM) | 3.13 (≈ 4.83 µM) | 3.13 (≈ 4.83 µM) | 12.5 (≈ 19.3 µM) | 50 (≈ 77.2 µM) | 50 (≈ 77.2 µM) | 50 (≈ 77.2 µM) | 6.25 (≈ 9.65 µM) | 100 (≈ 154 µM) | 50 (≈ 77.2 µM) | 12.5 (≈ 19.3 µM) | 50 (≈ 77.2 µM) | 6.25 (≈ 9.65 µM) | 25 (≈ 38.6 µM) | 50 (≈ 77.2 µM) | 25 (≈ 38.6 µM) | – |
| CCCCCCCCCCCCCCCOP(=O)(CCN1CCC(N)C1)OC[C@H]1O[C@@H](n2ccc(=O)[nH]c2=O)[C@H](O)[C@@H]1O (some centres undefined) | 6.25 (≈ 9.91 µM) | 12.5 (≈ 19.8 µM) | 3.13 (≈ 4.96 µM) | 6.25 (≈ 9.91 µM) | 6.25 (≈ 9.91 µM) | 6.25 (≈ 9.91 µM) | 6.25 (≈ 9.91 µM) | 6.25 (≈ 9.91 µM) | 25 (≈ 39.6 µM) | 6.25 (≈ 9.91 µM) | 6.25 (≈ 9.91 µM) | 6.25 (≈ 9.91 µM) | 3.13 (≈ 4.96 µM) | 6.25 (≈ 9.91 µM) | 50 (≈ 79.3 µM) | 12.5 (≈ 19.8 µM) | – |
| CCCCCCCCCC(=O)N[C@@H](Cc1c[nH]c2ccccc12)C(=O)N[C@@H](CC(N)=O)C(=O)N[C@@H](CC(=O)O)C(=O)N[C@@H]1C(=O)NCC(=O)N[C@@H](CCCN)C(=O)N[C@@H](CC(=O)O)C(=O)N[C@H](C)C(=O)N[C@@H](CC(=O)O)C(=O)NCC(=O)N[C@H](CO)C(=O)N[C@@H]([C@H](C)CC(=O)O)C(=O)N[C@@H](CC(=O)c2ccccc2N)C(=O)O[C@@H]1C | – | – | – | – | – | – | – | – | – | – | – | – | – | – | – | – | Activity [16]: 500 pS |
